Experiment [1] has as its target T1, natural ABAR/CHLH protein (Arabidopsis thaliana, UniProt Q9FNB0).
T1 construct: 50 μg proteins of the crude extracts from two-week-old Arabidopsis seedlings; from tissue; host or cells: crude extracts of two-week-old Arabidopsis seedlings / leaves of gl1 (WT), RNAi line 12 and overexpressor line 1
T1 sequence (Q9FNB0 50-1381): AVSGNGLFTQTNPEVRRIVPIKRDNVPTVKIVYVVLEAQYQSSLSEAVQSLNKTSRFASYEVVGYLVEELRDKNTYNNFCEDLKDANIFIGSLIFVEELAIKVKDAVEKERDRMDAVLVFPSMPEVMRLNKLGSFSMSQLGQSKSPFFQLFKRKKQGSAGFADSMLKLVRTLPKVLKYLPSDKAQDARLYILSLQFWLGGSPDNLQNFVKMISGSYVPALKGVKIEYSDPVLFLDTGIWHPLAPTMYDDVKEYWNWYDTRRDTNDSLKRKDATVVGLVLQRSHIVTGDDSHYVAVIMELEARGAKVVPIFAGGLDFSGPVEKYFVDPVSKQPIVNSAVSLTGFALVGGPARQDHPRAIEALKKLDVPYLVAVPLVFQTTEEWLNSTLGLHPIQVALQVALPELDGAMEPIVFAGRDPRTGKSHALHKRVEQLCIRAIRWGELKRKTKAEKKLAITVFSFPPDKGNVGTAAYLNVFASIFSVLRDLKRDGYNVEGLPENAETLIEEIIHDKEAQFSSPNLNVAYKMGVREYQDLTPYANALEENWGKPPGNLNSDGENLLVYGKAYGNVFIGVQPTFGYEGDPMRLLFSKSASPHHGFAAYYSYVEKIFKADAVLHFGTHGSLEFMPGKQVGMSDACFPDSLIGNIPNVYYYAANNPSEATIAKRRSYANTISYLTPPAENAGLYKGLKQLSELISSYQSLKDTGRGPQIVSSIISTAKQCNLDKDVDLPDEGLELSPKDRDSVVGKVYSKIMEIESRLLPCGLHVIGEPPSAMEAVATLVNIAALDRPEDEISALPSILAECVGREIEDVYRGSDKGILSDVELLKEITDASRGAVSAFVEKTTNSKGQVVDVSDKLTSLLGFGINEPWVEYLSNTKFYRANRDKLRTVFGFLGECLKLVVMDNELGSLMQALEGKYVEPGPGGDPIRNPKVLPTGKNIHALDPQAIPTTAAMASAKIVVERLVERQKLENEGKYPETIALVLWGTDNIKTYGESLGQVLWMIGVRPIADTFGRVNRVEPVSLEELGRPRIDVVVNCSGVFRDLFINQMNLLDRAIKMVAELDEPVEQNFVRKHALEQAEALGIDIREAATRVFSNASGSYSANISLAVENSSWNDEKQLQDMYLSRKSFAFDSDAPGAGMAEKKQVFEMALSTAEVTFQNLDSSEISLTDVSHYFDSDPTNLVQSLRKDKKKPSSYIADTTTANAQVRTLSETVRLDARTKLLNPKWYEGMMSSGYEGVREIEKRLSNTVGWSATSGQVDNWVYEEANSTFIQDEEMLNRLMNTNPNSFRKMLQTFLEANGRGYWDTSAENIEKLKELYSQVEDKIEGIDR
The experiment in a line: ABA binding assay with crude extracts of leaves (WT, RNAi, OE lines). As for the experimental part: The ABA-binding activity of ABAR was assayed according to the previously described procedures (Zhang, D. P. et al., Plant physiol. 128:714-725 (2002)) with modifications. The binding medium (medium A) contained 50 mM Tris-HCl (pH 7.0), 2 mM MgCl2, 1 mM CaCl2, and 250 mM mannitol. The medium for extracting the Arabidopsis natural ABAR/CHLH protein (medium B) was the medium A supplemented with 2 mM 1,4-dithiothreitol (DTT), 1 mM phenylmethyl sulfonyl fluoride (PMSF), […] leupeptin, and […] pepstin A but minus 250 mM mannitol. [^3H](+)ABA (American Radiolabeled Chemicals, 2.37×10^12 Bq mmol^−1, purity 98.4%) at 30 nM, or at a step gradient of concentrations from 0 to 70 nM (when analyzing ABA binding kinetics, see FIG. 1a, d1), together with 2 μg purified yeast-expressed ABAR/CHLH protein or 50 μg proteins of the crude extracts from two-week-old Arabidopsis seedlings, was added into the medium A. The total volume for the binding assays was adjusted to 200 μl. The mixtures were incubated at 25° C. for 30 min, and then quickly placed on ice. Following the addition of 100 μl 0.5% (w/v) Dextran T70-coated charcoal (DCC) to remove the free [^3H]ABA by adsorption, the mixtures were maintained on ice for 5 min, and then centrifuged to remove DCC before the radioactivity in the supernatant was counted. The specific binding was determined by the difference between the radioactivity bound to the immuno-purified ABAR protein or crude extracts of Arabidopsis seedlings incubated only with [^3H]ABA (total binding) and radioactivity bound in the presence of 1,000-fold molar excess of unlabeled (+)-ABA (Sigma; non-specific binding. Non-specific binding in all the assays was lower than 10% of the total binding, see FIG. 1a, d1). The unlabeled ABA was added into the incubation medium at the same time with [^3H]ABA. The ABA-binding activity of the crude ABA-binding protein from Arabidopsis seedling was expressed as the number of nanomoles of [^3H]ABA specifically bound per gram of protein, and that of the immuno-purified ABAR protein as the number of moles of [^3H]ABA per mole of protein. The stereo-specificity of the ABA-binding was assayed as described previously (Zhang, D. P. et al., Plant physiol. 128:714-725 (2002)). […] The conditions of incubation were the same as described above (the incubation medium containing 30 nM [^3H]ABA), and the two ABA isomers and (+)-ABA were assayed in the concentrations ranging from 1 to 1000-fold molar excess of [^3H]ABA.
For the assays of ABA binding in transgenic ABAR-RNAi and -overexpressor plants, we used more than three lines for each type of the transgenic plants and the results obtained were similar. Thus, only were the data with RNAi line 12 and overexpressor line 1 (see FIG. 5) shown in the text.

The target of the next experiment is T2, ABAR (Arabidopsis thaliana, UniProt Q9FNB0).
T2 construct: 6xHis; made in house; host or cells: transgenic yeast (Pichia methanolica), cell-free protein extracts
The experiment in a line: Preliminary ABA binding experiment with transgenic yeast extracts expressing ABAR cDNA.

Like-named read-outs stand apart in the source and are kept apart here.

Consider one compound from patent US20090044291A1, “DROUGHT-RESISTANT PLANTS AND METHOD FOR PRODUCING THE PLANTS” (D-Helix, priority 2006, published 2009).

In general, Kd refers to the equilibrium constant for the complex coming apart. `CC1=CC(=O)CC(C)(C)C1(O)/C=C/C(C)=C\C(=O)O` (centres unmarked) [ABA, abscisic acid]: the Kd is 0.035 to 0.038 µM in experiment [1] (across WT, RNAi and overexpressing leaf extracts, read-out: Kd); 0.036 µM in experiment [1] (leaf extracts of RNAi transgenic plants, read-out: Kd); 0.038 µM in experiment [1] (leaf extracts of overexpressors of ABAR/CHLH gene (OE, line 1), read-out: Kd); 0.035 µM in experiment [1] (leaf extracts of wild-type plants (WT), read-out: Kd (equilibrium dissociation constant)); 0.036 µM at ABAR. For the same compound, the Bmax in experiment [1] (leaf extracts of RNAi transgenic plants) was found to be 25 nmol/g; in experiment [1] (leaf extracts of overexpressors of ABAR/CHLH gene (OE, line 1)), 80 nmol/g. For the same compound, in experiment [1] (leaf extracts of wild-type plants (WT)), the “Bmax (maximum binding)” value is on record as 60 nmol ABA g^−1 crude protein.
